These results are taken from ChEMBL document CHEMBL1136984, “Orally active C-6 heteroaryl- and heterocyclyl-substituted imidazo[1,2-a]pyridine acid pump antagonists (APAs)” (Bioorg Med Chem Lett, 2009).

For data set [1] the following is noted: buffer, pH 7.4.
A short description of data set [2]: in vivo. The note with it: dog, iv, 1 mg/kg.
Data set [3] in a line: in vivo. To be noted: dog, po, 1 mg/kg.
A short description of data set [4]: in vivo. The note with it: rat, iv, 1 mg/kg.
Data set [5] is described as follows: in vivo. To be noted: rat, po, 1 mg/kg.
Data set [6] can be described thus: in vivo. The note with it: dog, iv, 1 mg/kg. The source holds these as a separate data set.
Data set [7] is described as follows: in vivo. The note with it: rat, blood, iv, 1 mg/kg.
Data set [8] in a line: Blood clearance in dog at 1 mg/kg/hr, iv dosed in saline containing hydroxylpropyl-beta-cyclodextrin and DMSO. Format: ADME, organism-based, Canis lupus familiaris. Set-up: route intravenous.
A short description of data set [9]: in vivo. The note with it: rat, iv, 1 mg/kg. The source holds these as a separate data set.

Consider `CCc1cccc(C)c1CNc1cc(C(N)=O)cn2c(C)c(C)nc12`, for which the CHI in [1] worked out at 2.52.

Compound `Cc1cccc(C)c1CNc1cc(-n2ccc(=O)cc2)cn2c(C)c(C)nc12` returned a CHI in data set [1] of 1.58.

As to `Cc1cccc(CNc2cc(-n3ccccc3=O)cn3c(C)c(C)nc23)c1`, the CHI in data set [1] amounted to 2.17.

`Cc1nc2c(NCc3cccnc3)cc(-n3ccccc3=O)cn2c1C` came in with a CHI in data set [1] of 0.73.

`Cc1cccc(C)c1CNc1cc(-n2cc(C(N)=O)ccc2=O)cn2c(C)c(C)nc12` gave a CHI in [1] of 1.71.

For the compound `Cc1cccc(C)c1CNc1cc(N2CCCCC2=O)cn2c(C)c(C)nc12`, the CHI in [1] stood at 2.79.

What is called half-life is the time in which the quantity being followed falls by half. As usually defined, the bioavailability is dose-corrected exposure relative to a reference, in per cent. One may read the Vd as the apparent volume that relates the amount in the body to the concentration in plasma or blood. Broadly, the clearance is the rate of elimination divided by the concentration. Low values mean inefficient removal, high ones efficient removal. The compound `Cc1cccc(C)c1CNc1cc(-n2cncn2)cn2c(C)c(C)nc12` gave a half-life in the data set “in vivo [2]” of 2.3 h. In addition, the figures for the bioavailability in “in vivo [3]” and in the data set “in vivo [5]” were 12% and 21%, respectively. For the same compound, the distribution volume (Vd) in the data set “in vivo [4]” worked out at 3.5 L/kg; in the data set “in vivo [6]”, 6.6 L/kg. Further, the clearance is 83 mL/min/kg in the data set “in vivo [7]” and 50 mL/min/kg in data set [8]. The CHI in [1] amounted to 3.07.

In the case of `Cc1cccc(C)c1CNc1cc(-n2ccccc2=O)cn2c(CO)c(C)nc12`, the half-life is 1.6 h in “in vivo [2]” and 5.3 h in the data set “in vivo [9]”. For the same compound, the bioavailability in the data set “in vivo [3]” amounted to 36%; in “in vivo [5]” it was 28%. The Vd in the data set “in vivo [4]” worked out at 1 L/kg; in the data set “in vivo [6]”, 1.1 L/kg. The results for the clearance (in the data set “in vivo [7]”; in data set [8]) were 37 mL/min/kg and 10 mL/min/kg, respectively.

On to `COc1ccccc1CNc1cc(-n2ccccc2=O)cn2c(C)c(C)nc12`, for which, in data set [1], the CHI is on record as 1.93.

As for `Cc1nc2c(NCc3ccc(F)cc3Cl)cc(-n3ccccc3=O)cn2c1C`, the CHI in data set [1] is given as 2.26.

Compound `Cc1cn2cc(-n3ccccc3=O)cc(NCc3c(C)cccc3C)c2n1` had a volume of distribution (Vd) in “in vivo [4]” of 1.8 L/kg. The same compound came in with a bioavailability in “in vivo [5]” of 18%. The compound also gave a half-life in “in vivo [9]” of 0.5 h. This compound also displayed a clearance in the data set “in vivo [7]” of 58 mL/min/kg.

For the compound `Cc1cccc(C)c1COc1cc(-n2ccccc2=O)cn2c(C)c(C)nc12`, the CHI in data set [1] turned out to be 2.12.

The compound `Cc1cccc(C)c1CNc1cc(-n2cnccc2=O)cn2c(C)c(C)nc12` registered a CHI in [1] of 2.33.

For `Cc1nc2c3c(c(-n4ccccc4=O)cn2c1C)CC[C@@H](c1ccccc1)N3`, the CHI in data set [1] is given as 3.35.

Consider `Cc1nc2c(NCc3ccc(F)cc3Cl)cc(-n3cncn3)cn2c1C`, for which, in [1], the CHI was 2.61.

Turning to `Cc1cccc(C)c1CNc1cc(C(=O)NCCO)cn2c(C)c(C)nc12` [LINAPRAZAN], in [1], the CHI is given as 2.14.
